Laboratory results published in ChEMBL document CHEMBL1909046, “DrugMatrix in vitro pharmacology data”.

Tested on: not listed separately
Assay: DRUGMATRIX: GABAA, Chloride Channel, TBOB radioligand binding (ligand: [3H] TBOB)
Format: cell membranes, Rattus norvegicus, Wistar, Cerebral cortex, Membrane
Settings: Not Active = under 50% inhibition at 10 µM

Row | SMILES | IC50 | Ki
1 | C[C@@H]1C[C@H]2[C@@H]3CCC4=CC(=O)C=C[C@]4(C)[C@@]3(F)[C@@H](O)C[C@]2(C)[C@@]1(O)C(=O)CO [DEXAMETHASONE] | Not Active | Not Active
2 | CN(C)CC[C@@H](c1ccc(Cl)cc1)c1ccccn1 [DEXCHLORPHENIRAMINE] | Not Active | Not Active
3 | C[C@H]1O[C@@H](n2cc(F)c(=O)[nH]c2=O)[C@H](O)[C@@H]1O [DOXIFLURIDINE] | Not Active | Not Active
4 | CC[C@H]1CN2CCc3cc(OC)c(OC)cc3[C@@H]2C[C@@H]1C[C@H]1NCCc2cc(OC)c(OC)cc21 [EMETINE] | Not Active | Not Active
5 | C[C@@H](CO)NC(=O)[C@@H]1C=C2c3cccc4[nH]cc(c34)C[C@H]2N(C)C1 [ERGONOVINE] | Not Active | Not Active
6 | COc1cc([C@@H]2c3cc4c(cc3[C@@H](O[C@@H]3O[C@@H]5CO[C@@H](C)O[C@H]5[C@H](O)[C@H]3O)[C@H]3COC(=O)[C@H]23)OCO4)cc(OC)c1O [ETOPOSIDE] | Not Active | Not Active
7 | CC(C)=CCC/C(C)=C/CO [GERANIOL] | Not Active | Not Active
8 | CC(=O)[C@@]1(O)CC[C@H]2[C@@H]3CCC4=CC(=O)CC[C@]4(C)[C@H]3CC[C@@]21C [HYDROXYPROGESTERONE] | Not Active | Not Active
9 | CC(C)NCC(O)COc1cccc2[nH]ccc12 (stereo not drawn) [PINDOLOL] | Not Active | Not Active
10 | CCCNCC(O)COc1ccccc1C(=O)CCc1ccccc1 (stereo not drawn) [PROPAFENONE] | Not Active | Not Active

Target: T1, C-X-C chemokine receptor type 2 (Homo sapiens, UniProt P25025); note: in other assays of this panel Not Active means under 50% inhibition at 10 µM
T1 sequence (P25025 whole entry): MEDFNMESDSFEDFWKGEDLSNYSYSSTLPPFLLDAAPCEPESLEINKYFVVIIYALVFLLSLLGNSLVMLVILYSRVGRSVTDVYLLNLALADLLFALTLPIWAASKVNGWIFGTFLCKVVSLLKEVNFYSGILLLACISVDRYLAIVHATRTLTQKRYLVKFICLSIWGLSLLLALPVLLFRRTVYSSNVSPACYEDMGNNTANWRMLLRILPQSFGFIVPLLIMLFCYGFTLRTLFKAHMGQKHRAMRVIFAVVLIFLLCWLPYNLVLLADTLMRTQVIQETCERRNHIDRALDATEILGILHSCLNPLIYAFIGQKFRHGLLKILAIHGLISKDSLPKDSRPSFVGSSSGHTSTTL
Format: cell membranes, Membrane
Settings: cho-k1

Row | SMILES | IC50
11 | C[C@@H]1C[C@H]2[C@@H]3CCC4=CC(=O)C=C[C@]4(C)[C@@]3(F)[C@@H](O)C[C@]2(C)[C@@]1(O)C(=O)CO [DEXAMETHASONE] | Not Active
12 | CN(C)CC[C@@H](c1ccc(Cl)cc1)c1ccccn1 [DEXCHLORPHENIRAMINE] | Not Active
13 | C[C@H]1O[C@@H](n2cc(F)c(=O)[nH]c2=O)[C@H](O)[C@@H]1O [DOXIFLURIDINE] | Not Active
14 | CC[C@H]1CN2CCc3cc(OC)c(OC)cc3[C@@H]2C[C@@H]1C[C@H]1NCCc2cc(OC)c(OC)cc21 [EMETINE] | Not Active
15 | C[C@@H](CO)NC(=O)[C@@H]1C=C2c3cccc4[nH]cc(c34)C[C@H]2N(C)C1 [ERGONOVINE] | Not Active
16 | COc1cc([C@@H]2c3cc4c(cc3[C@@H](O[C@@H]3O[C@@H]5CO[C@@H](C)O[C@H]5[C@H](O)[C@H]3O)[C@H]3COC(=O)[C@H]23)OCO4)cc(OC)c1O [ETOPOSIDE] | Not Active
17 | CC(C)=CCC/C(C)=C/CO [GERANIOL] | Not Active
18 | CC(=O)[C@@]1(O)CC[C@H]2[C@@H]3CCC4=CC(=O)CC[C@]4(C)[C@H]3CC[C@@]21C [HYDROXYPROGESTERONE] | Not Active
19 | CC(C)NCC(O)COc1cccc2[nH]ccc12 (stereo not drawn) [PINDOLOL] | Not Active
20 | CCCNCC(O)COc1ccccc1C(=O)CCc1ccccc1 (stereo not drawn) [PROPAFENONE] | Not Active

Target: Cytochrome P450 3A4 (Homo sapiens, UniProt P08684); note: in other assays of this panel Not Active means under 50% inhibition at 10 µM
Settings: bti-tn-5b1-4

Chain of Cytochrome P450 3A4 (P08684 whole entry): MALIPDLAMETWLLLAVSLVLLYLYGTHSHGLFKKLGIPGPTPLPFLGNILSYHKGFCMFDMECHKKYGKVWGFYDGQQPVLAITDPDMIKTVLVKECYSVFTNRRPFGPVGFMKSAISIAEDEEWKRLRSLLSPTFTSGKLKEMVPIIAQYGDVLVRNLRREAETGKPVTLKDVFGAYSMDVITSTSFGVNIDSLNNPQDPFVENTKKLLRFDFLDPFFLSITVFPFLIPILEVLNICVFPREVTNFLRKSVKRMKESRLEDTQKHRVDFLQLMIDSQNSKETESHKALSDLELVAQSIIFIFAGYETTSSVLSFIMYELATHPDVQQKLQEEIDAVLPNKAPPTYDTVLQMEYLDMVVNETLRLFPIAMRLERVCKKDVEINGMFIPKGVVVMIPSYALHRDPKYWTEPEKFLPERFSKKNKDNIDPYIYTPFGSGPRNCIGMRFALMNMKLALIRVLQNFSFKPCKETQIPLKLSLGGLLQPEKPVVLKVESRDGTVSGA

Row | SMILES | IC50 | Ki
21 | CN(C)CC[C@@H](c1ccc(Cl)cc1)c1ccccn1 [DEXCHLORPHENIRAMINE] | Not Active | Not Active
22 | C[C@H]1O[C@@H](n2cc(F)c(=O)[nH]c2=O)[C@H](O)[C@@H]1O [DOXIFLURIDINE] | Not Active | Not Active
23 | CC[C@H]1CN2CCc3cc(OC)c(OC)cc3[C@@H]2C[C@@H]1C[C@H]1NCCc2cc(OC)c(OC)cc21 [EMETINE] | Not Active | Not Active
24 | C[C@@H](CO)NC(=O)[C@@H]1C=C2c3cccc4[nH]cc(c34)C[C@H]2N(C)C1 [ERGONOVINE] | Not Active | Not Active

Target: 5-hydroxytryptamine receptor 6 (Homo sapiens, UniProt P50406); note: in other assays of this panel Not Active means under 50% inhibition at 10 µM
Format: cell membranes, HeLa, Membrane
Settings: hela

Chain of 5-hydroxytryptamine receptor 6 (P50406 whole entry): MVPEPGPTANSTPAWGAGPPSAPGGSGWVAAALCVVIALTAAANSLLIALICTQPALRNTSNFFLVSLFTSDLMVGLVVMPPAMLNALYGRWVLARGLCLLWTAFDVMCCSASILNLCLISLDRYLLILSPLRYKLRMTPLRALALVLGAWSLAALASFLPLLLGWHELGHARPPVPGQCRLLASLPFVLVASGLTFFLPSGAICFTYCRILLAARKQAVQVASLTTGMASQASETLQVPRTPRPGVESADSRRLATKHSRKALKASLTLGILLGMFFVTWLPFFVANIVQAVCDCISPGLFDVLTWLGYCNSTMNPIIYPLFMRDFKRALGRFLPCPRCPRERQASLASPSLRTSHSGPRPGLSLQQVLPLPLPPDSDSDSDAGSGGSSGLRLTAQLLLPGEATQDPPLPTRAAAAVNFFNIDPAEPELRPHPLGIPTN

Row | SMILES | IC50
25 | C[C@@H]1C[C@H]2[C@@H]3CCC4=CC(=O)C=C[C@]4(C)[C@@]3(F)[C@@H](O)C[C@]2(C)[C@@]1(O)C(=O)CO [DEXAMETHASONE] | Not Active
26 | CN(C)CC[C@@H](c1ccc(Cl)cc1)c1ccccn1 [DEXCHLORPHENIRAMINE] | Not Active
27 | C[C@H]1O[C@@H](n2cc(F)c(=O)[nH]c2=O)[C@H](O)[C@@H]1O [DOXIFLURIDINE] | Not Active
28 | CC[C@H]1CN2CCc3cc(OC)c(OC)cc3[C@@H]2C[C@@H]1C[C@H]1NCCc2cc(OC)c(OC)cc21 [EMETINE] | Not Active
29 | COc1cc([C@@H]2c3cc4c(cc3[C@@H](O[C@@H]3O[C@@H]5CO[C@@H](C)O[C@H]5[C@H](O)[C@H]3O)[C@H]3COC(=O)[C@H]23)OCO4)cc(OC)c1O [ETOPOSIDE] | Not Active
30 | CC(C)=CCC/C(C)=C/CO [GERANIOL] | Not Active
31 | CC(=O)[C@@]1(O)CC[C@H]2[C@@H]3CCC4=CC(=O)CC[C@]4(C)[C@H]3CC[C@@]21C [HYDROXYPROGESTERONE] | Not Active
32 | CC(C)NCC(O)COc1cccc2[nH]ccc12 (stereo not drawn) [PINDOLOL] | Not Active

Same assay, conditions: read-out: IC50

Row | SMILES | IC50
33 | C[C@@H](CO)NC(=O)[C@@H]1C=C2c3cccc4[nH]cc(c34)C[C@H]2N(C)C1 [ERGONOVINE] | 3.24 nM
34 | CCCNCC(O)COc1ccccc1C(=O)CCc1ccccc1 (stereo not drawn) [PROPAFENONE] | 1860 nM

Same assay, conditions: read-out: Ki

Row | SMILES | Ki
35 | C[C@@H](CO)NC(=O)[C@@H]1C=C2c3cccc4[nH]cc(c34)C[C@H]2N(C)C1 [ERGONOVINE] | 1.5 nM
36 | CCCNCC(O)COc1ccccc1C(=O)CCc1ccccc1 (stereo not drawn) [PROPAFENONE] | 865 nM

Tested on: not listed separately
Assay: DRUGMATRIX: Platelet-Derived Growth Factor (PDGF) radioligand binding (ligand: [125I] PDGF)
Format: cell-based
Settings: nih3t3; Not Active = under 50% inhibition at 10 µM

Row | SMILES | IC50 | Ki
37 | C[C@@H]1C[C@H]2[C@@H]3CCC4=CC(=O)C=C[C@]4(C)[C@@]3(F)[C@@H](O)C[C@]2(C)[C@@]1(O)C(=O)CO [DEXAMETHASONE] | Not Active | Not Active
38 | CN(C)CC[C@@H](c1ccc(Cl)cc1)c1ccccn1 [DEXCHLORPHENIRAMINE] | Not Active | Not Active
39 | C[C@H]1O[C@@H](n2cc(F)c(=O)[nH]c2=O)[C@H](O)[C@@H]1O [DOXIFLURIDINE] | Not Active | Not Active
40 | CC[C@H]1CN2CCc3cc(OC)c(OC)cc3[C@@H]2C[C@@H]1C[C@H]1NCCc2cc(OC)c(OC)cc21 [EMETINE] | Not Active | Not Active
41 | C[C@@H](CO)NC(=O)[C@@H]1C=C2c3cccc4[nH]cc(c34)C[C@H]2N(C)C1 [ERGONOVINE] | Not Active | Not Active
42 | COc1cc([C@@H]2c3cc4c(cc3[C@@H](O[C@@H]3O[C@@H]5CO[C@@H](C)O[C@H]5[C@H](O)[C@H]3O)[C@H]3COC(=O)[C@H]23)OCO4)cc(OC)c1O [ETOPOSIDE] | Not Active | Not Active
43 | CC(C)=CCC/C(C)=C/CO [GERANIOL] | Not Active | Not Active
44 | CC(=O)[C@@]1(O)CC[C@H]2[C@@H]3CCC4=CC(=O)CC[C@]4(C)[C@H]3CC[C@@]21C [HYDROXYPROGESTERONE] | Not Active | Not Active
45 | CC(C)NCC(O)COc1cccc2[nH]ccc12 (stereo not drawn) [PINDOLOL] | Not Active | Not Active
46 | CCCNCC(O)COc1ccccc1C(=O)CCc1ccccc1 (stereo not drawn) [PROPAFENONE] | Not Active | Not Active

Target: Cannabinoid receptor 1 (Homo sapiens, UniProt P21554); note: in other assays of this panel Not Active means under 50% inhibition at 10 µM
Format: cell membranes, Chem-1, Membrane
Settings: chem-1

Chain of Cannabinoid receptor 1 (P21554 whole entry): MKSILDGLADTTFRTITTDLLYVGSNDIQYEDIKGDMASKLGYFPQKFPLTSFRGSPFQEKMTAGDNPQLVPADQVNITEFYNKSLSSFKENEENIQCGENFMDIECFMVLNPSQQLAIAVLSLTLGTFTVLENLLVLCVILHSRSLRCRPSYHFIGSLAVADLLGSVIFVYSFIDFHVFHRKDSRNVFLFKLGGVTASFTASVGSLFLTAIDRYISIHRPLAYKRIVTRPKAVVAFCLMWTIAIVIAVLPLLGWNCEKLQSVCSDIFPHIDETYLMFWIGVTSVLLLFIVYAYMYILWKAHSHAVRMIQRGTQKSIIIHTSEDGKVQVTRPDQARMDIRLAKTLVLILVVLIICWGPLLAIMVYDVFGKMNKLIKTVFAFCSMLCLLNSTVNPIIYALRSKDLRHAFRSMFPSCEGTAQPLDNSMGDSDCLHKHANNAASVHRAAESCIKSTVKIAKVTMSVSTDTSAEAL

Row | SMILES | IC50
47 | C[C@@H]1C[C@H]2[C@@H]3CCC4=CC(=O)C=C[C@]4(C)[C@@]3(F)[C@@H](O)C[C@]2(C)[C@@]1(O)C(=O)CO [DEXAMETHASONE] | Not Active
48 | CN(C)CC[C@@H](c1ccc(Cl)cc1)c1ccccn1 [DEXCHLORPHENIRAMINE] | Not Active
49 | C[C@H]1O[C@@H](n2cc(F)c(=O)[nH]c2=O)[C@H](O)[C@@H]1O [DOXIFLURIDINE] | Not Active
50 | CC[C@H]1CN2CCc3cc(OC)c(OC)cc3[C@@H]2C[C@@H]1C[C@H]1NCCc2cc(OC)c(OC)cc21 [EMETINE] | Not Active
51 | C[C@@H](CO)NC(=O)[C@@H]1C=C2c3cccc4[nH]cc(c34)C[C@H]2N(C)C1 [ERGONOVINE] | Not Active
52 | COc1cc([C@@H]2c3cc4c(cc3[C@@H](O[C@@H]3O[C@@H]5CO[C@@H](C)O[C@H]5[C@H](O)[C@H]3O)[C@H]3COC(=O)[C@H]23)OCO4)cc(OC)c1O [ETOPOSIDE] | Not Active
53 | CC(C)=CCC/C(C)=C/CO [GERANIOL] | Not Active
54 | CC(=O)[C@@]1(O)CC[C@H]2[C@@H]3CCC4=CC(=O)CC[C@]4(C)[C@H]3CC[C@@]21C [HYDROXYPROGESTERONE] | Not Active
55 | CC(C)NCC(O)COc1cccc2[nH]ccc12 (stereo not drawn) [PINDOLOL] | Not Active
56 | CCCNCC(O)COc1ccccc1C(=O)CCc1ccccc1 (stereo not drawn) [PROPAFENONE] | Not Active

Target: Beta-3 adrenergic receptor (Homo sapiens, UniProt P13945)
Assay: DRUGMATRIX: Adrenergic beta3 radioligand binding (ligand: [125I] Cyanopindolol)
Format: cell membranes, HEK293, Membrane
Settings: hek293; Not Active = under 50% inhibition at 10 µM

Chain of Beta-3 adrenergic receptor (P13945 whole entry): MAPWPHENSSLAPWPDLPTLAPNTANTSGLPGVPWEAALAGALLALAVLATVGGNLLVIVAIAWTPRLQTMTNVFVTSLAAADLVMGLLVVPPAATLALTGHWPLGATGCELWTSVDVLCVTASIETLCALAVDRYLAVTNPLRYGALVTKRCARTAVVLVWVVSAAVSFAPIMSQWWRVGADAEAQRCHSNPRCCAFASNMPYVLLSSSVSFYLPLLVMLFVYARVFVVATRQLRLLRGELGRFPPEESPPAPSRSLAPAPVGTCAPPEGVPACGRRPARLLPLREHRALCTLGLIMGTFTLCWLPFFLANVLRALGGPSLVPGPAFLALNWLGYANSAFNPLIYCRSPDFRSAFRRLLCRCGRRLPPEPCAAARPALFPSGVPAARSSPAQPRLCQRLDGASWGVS

Row | SMILES | IC50
57 | C[C@@H]1C[C@H]2[C@@H]3CCC4=CC(=O)C=C[C@]4(C)[C@@]3(F)[C@@H](O)C[C@]2(C)[C@@]1(O)C(=O)CO [DEXAMETHASONE] | Not Active
58 | CN(C)CC[C@@H](c1ccc(Cl)cc1)c1ccccn1 [DEXCHLORPHENIRAMINE] | Not Active
59 | C[C@H]1O[C@@H](n2cc(F)c(=O)[nH]c2=O)[C@H](O)[C@@H]1O [DOXIFLURIDINE] | Not Active
60 | CC[C@H]1CN2CCc3cc(OC)c(OC)cc3[C@@H]2C[C@@H]1C[C@H]1NCCc2cc(OC)c(OC)cc21 [EMETINE] | Not Active
61 | C[C@@H](CO)NC(=O)[C@@H]1C=C2c3cccc4[nH]cc(c34)C[C@H]2N(C)C1 [ERGONOVINE] | Not Active
62 | COc1cc([C@@H]2c3cc4c(cc3[C@@H](O[C@@H]3O[C@@H]5CO[C@@H](C)O[C@H]5[C@H](O)[C@H]3O)[C@H]3COC(=O)[C@H]23)OCO4)cc(OC)c1O [ETOPOSIDE] | Not Active
63 | CC(C)=CCC/C(C)=C/CO [GERANIOL] | Not Active
64 | CC(=O)[C@@]1(O)CC[C@H]2[C@@H]3CCC4=CC(=O)CC[C@]4(C)[C@H]3CC[C@@]21C [HYDROXYPROGESTERONE] | Not Active
